Our source for the IC50 values is US12053451B2, “Arginase inhibitors and their therapeutic applications” (OncoArendi Therapeutics S.A., priority 2016, dated 2024).

Where a name gives a salt, the structure may show the parent alone.

Experiment [1] has as its target T1, recombinant human arginase 1 (Homo sapiens, UniProt P05089).
T1 construct: purchased Biolegend 552502
T1 sequence (P05089 1-322): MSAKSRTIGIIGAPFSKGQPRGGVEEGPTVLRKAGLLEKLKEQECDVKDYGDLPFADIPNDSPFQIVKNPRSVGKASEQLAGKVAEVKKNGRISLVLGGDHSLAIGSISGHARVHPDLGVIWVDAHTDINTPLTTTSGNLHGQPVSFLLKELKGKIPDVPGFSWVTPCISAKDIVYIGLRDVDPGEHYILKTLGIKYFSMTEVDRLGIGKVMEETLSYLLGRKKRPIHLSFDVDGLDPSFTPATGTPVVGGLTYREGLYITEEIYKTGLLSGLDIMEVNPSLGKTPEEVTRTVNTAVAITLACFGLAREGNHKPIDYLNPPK
Nature of the experiment: Human arginase activity assay (urea measurement), arginase 1. It is filed as biochemical. The settings on record: recombinant human arginase 1, pH 7.4, 37° C., 60 min; * = value for the most potent diastereoisomer or the mixture of diastereoisomers; read-out: Activity Class (ARG I). As to the method: (§1) Human Arginase Activity Assay
The assay was run in the 96-well plate format, each reaction in the total volume of 100 uL. The assay is based on urea measurement, which is a product of L-arginine enzymatic degradation. […] The color product is developed by adding a mixture of reagent A (4 mM oPA in 50 mM boric acid in 1M sulfuric acid, 0.03% Brij-35) and reagent B (4 mM NED in 50 mM boric acid in 1M sulfuric acid, 0.03% Brij-35) in equal proportions. The absorbance for each well was measured at 530 nm.
(§2) For positive control, only the enzyme and substrate were used, the negative controls contained substrate solution with assay buffer. After incubating the microtiter plate at 37° C. for 60 min 150 μL of mixed reagents A and B was added to each well to stop the reaction. Absorbance was measured (λ=530 nm) 20 minutes later, after color development. The urea production in the absence of any compound was considered the maximum arginase activity. The absorbance in the absence of arginase (background) was subtracted from all the values. The normalized OD was used to generate a concentration-response curve by plotting the percent of inhibition against log[concentration] of the compound and using regression analysis (GraphPad Prism 7.0) to compute the IC50 values.

Experiment [2] concerns the target T2, recombinant human arginase 2 (Homo sapiens, UniProt P78540).
T2 construct: made in house; host or cells: CHO
T2 sequence (P78540 23-354): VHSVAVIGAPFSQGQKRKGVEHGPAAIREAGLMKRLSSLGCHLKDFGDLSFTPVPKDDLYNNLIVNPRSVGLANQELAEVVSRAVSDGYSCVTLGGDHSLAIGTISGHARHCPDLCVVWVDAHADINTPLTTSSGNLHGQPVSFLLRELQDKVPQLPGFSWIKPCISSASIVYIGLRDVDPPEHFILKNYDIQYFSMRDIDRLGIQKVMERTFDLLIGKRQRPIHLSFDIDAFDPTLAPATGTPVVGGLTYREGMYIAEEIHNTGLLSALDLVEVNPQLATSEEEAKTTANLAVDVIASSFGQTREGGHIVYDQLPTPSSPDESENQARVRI
Nature of the experiment: Human arginase activity assay (urea measurement), arginase 2. It is filed as biochemical. The settings on record: for selected examples class estimated from % of inhibition at 1 μM and 100 μM, * = most potent diastereoisomer or mixture of diastereoisomers, read-out: Activity Class (ARG II). The protocol: as §1
An enzymatic assay with recombinant human arginases 1 (Biolegend, Cat. No. 552502) and 2 (homemade in eukaryotic expression system of CHO, purified by FPLC) was used in order to assess inhibitory activity of the compounds. The assay was run in the 96-well plate format, each reaction in the total volume of 100 uL. The assay is based on urea measurement, which is a product of L-arginine enzymatic degradation. (Baggio et al. J Pharmacol. Exp. Ther. 1999, 290, 1409-1416). The color product is developed by adding a mixture of reagent A (4 mM oPA in 50 mM boric acid in 1M sulfuric acid, 0.03% Brij-35) and reagent B (4 mM NED in 50 mM boric acid in 1M sulfuric acid, 0.03% Brij-35) in equal proportions. The absorbance for each well was measured at 530 nm.
as §2, with “Briefly, to each well of a 96-well microtiter plate 40 μL of enzyme in the reaction assay buffer (pH 7.4, 100 mM sodium phosphate buffer, 130 mM NaCl, 1 mg/mL albumin), 50 μL of the test compound solution and 10 μL of enzyme substrate solution (L-arginine hydrochloride, natural pH 5.6, final concentration 20 mM and a cofactor—manganese chloride, final concentration 150 μM) was added. For” for “For”
For selected examples the activity class for ARG2 was estimated based on % of inhibition for 1 μM and 100 μM concentration of tested compounds.

As to `NC[C@H]1C[C@](N)(C(=O)O)C[C@@H]1CCB(O)O` (racemic) [Example 6, rac-(1S,3S,4S)-1-Amino-3-(aminomethyl)-4-(2-boronoethyl)cyclopentane-1-carboxylic acid dihydrochloride], the IC50 in experiment [1] and in experiment [2] was 1 to 10 µM each time.
Regarding `N[C@]1(C(=O)O)C[C@H](CCB(O)O)CC[C@H]1O` (racemic) [Example 13, rac-(1R,2R,5R)-1-Amino-5-(2-boronoethyl)-2-hydroxycyclohexane-1-carboxylic acid hydrochloride], the IC50 in experiment [1] was 0.1 to 1 µM; in experiment [2], 10 to 100 µM.
With `N[C@@]1(C(=O)O)C[C@H](CCB(O)O)CC[C@@H]1O` (racemic) [Example 15, rac-(1S,2S,5R)-1-Amino-5-(2-boronoethyl)-2-hydroxycyclohexane-1-carboxylic acid hydrochloride], the IC50 in experiment [1] and in experiment [2] was greater than 100 µM each time.
For the molecule `NC1(C(=O)O)C[C@H](CCB(O)O)CC[C@@H]1O` (mixture of isomers) [Example 16, rac-(2S,5R)-1-Amino-5-(2-boronoethyl)-2-hydroxycyclohexane-1-carboxylic acid hydrochloride], the IC50 in experiment [1] and in experiment [2] was 10 to 100 µM each time.
In the case of `CN(C)C[C@@H]1CC[C@@H](CCB(O)O)C[C@@]1(N)C(=O)O` (racemic) [Example 19, rac-(1S,2S,5R)-1-amino-5-(2-boronoethyl)-2-((dimethylamino)methyl)cyclohexane-1-carboxylic acid dihydrochloride], the IC50 in experiment [1] and in experiment [2] was 1 to 10 µM in each case.
As for `N[C@]1(C(=O)O)C[C@H](CCB(O)O)CC[C@H]1CNCC(F)(F)F` (racemic) [Example 36, rac-(1R,2S,5R)-1-amino-5-(2-boronoethyl)-2-(((2,2,2-trifluoroethyl)amino)methyl)cyclohexanecarboxylic acid dihydrochloride], the IC50 was greater than 100 µM in experiment [1] and 0.1 to 1 µM in experiment [2].
`COc1ccc(N(C)C[C@@H]2CC[C@@H](CCB(O)O)C[C@]2(N)C(=O)O)cc1` (racemic) [Example 37, rac-(1R,2S,5R)-1-amino-5-(2-boronoethyl)-2-(((4-methoxyphenyl)(methyl)amino)methyl)cyclohexanecarboxylic acid dihydrochloride]: the IC50 in experiment [1] and in experiment [2] was 1 to 10 µM each time.
For the molecule `CN(C[C@@H]1CC[C@@H](CCB(O)O)C[C@]1(N)C(=O)O)c1ccccc1` (racemic) [Example 40, rac-(1R,2S,5R)-1-amino-5-(2-boronoethyl)-2-((methyl(phenyl)amino)methyl)cyclohexanecarboxylic acid dihydrochloride], the IC50 in experiment [1] and in experiment [2] was 1 to 10 µM throughout.
Turning to `CN1C[C@@H](CCB(O)O)C[C@](N)(C(=O)O)C1` (racemic) [Example 59, rac-(3R,5S)-3-amino-5-(2-boronoethyl)-1-methylpiperidine-3-carboxylic acid], the IC50 in experiment [1] and in experiment [2] was 1 to 10 µM throughout.
With `CN(C)CCC1CC[C@@H](CCB(O)O)CC1(N)C(=O)O` (single isomer, unassigned) [Example 47, dihydrochloride], the IC50 is 0.1 to 1 µM in experiment [1] and 0.001 to 0.1 µM in experiment [2].
As to `NC1(C(=O)O)CC(CCB(O)O)CCC1(O)Cc1ccc(Cl)cc1` (single isomer, unassigned) [Example 52, 1-amino-5-(2-boronoethyl)-2-(4-chlorobenzyl)-2-hydroxycyclohexanecarboxylic acid hydrochloride], the IC50 in experiment [1] and in experiment [2] was 10 to 100 µM in each case.
On to `NC1(C(=O)O)CNC(CCB(O)O)C1` (centres unmarked) [Example 9, 3-Amino-5-(2-boronoethyl)pyrrolidine-3-carboxylic acid dihydrochloride], for which the IC50 in experiment [1] and in experiment [2] was greater than 100 µM each time.
`NC1(C(=O)O)CCCCC(CCB(O)O)C1` (centres unmarked) [Example 12, 1-Amino-3-(2-boronoethyl)cycloheptane-1-carboxylic acid hydrochloride]: the IC50 in experiment [1] and in experiment [2] was greater than 100 µM each time.
